Results from article PMC9174720, “Evaluation of antioxidant and cytotoxic properties of phenolic N-acylhydrazones: structure–activity relationship” (Royal Society Open Science, 2022).
Read-outs that look alike come from different tables or passages of the source.

Columns and labels:
[1] = DPPH radical scavenging assay; format: biochemical; details: for IC50: DPPH 0.05 mM in methanol, incubated 20 and 60 min, absorbance at 517 nm, mean ± s.d. of three measurements, read-out: IC50 for inactivation of DPPH free radical; for stoichiometric factor (SF): SF=[DPPH]/(2×IC50), good antioxidant if SF ≥ 2
Procedure: The antioxidant screening of all PheNAHs was performed using the 2,2-diphenyl-1-picrylhydrazyl (DPPH) method. The solution of DPPH radical in methanol (0.05 mM, 1 ml) was mixed with the tested compound (20 µl of different concentrations in dimethyl sulfoxide (DMSO) and 980 µl of methanol). The reaction mixture was incubated in the dark at room temperature for 20 and 60 min after which the absorbance of the sample was measured spectrophotometrically at 517 nm. All measurements were performed in triplicate. Methanol was used as a control solution, whereas quercetin and nordihydroguaiaretic acid (NDGA) were used as reference compounds. […] IC50 is defined as the minimal concentration of tested compound required for reaching 50% of a maximum scavenging capacity. The results were presented as mean values ± standard deviation (s.d.) of three independent measurements. The stoichiometric factor (SF) was calculated for all compounds using the equation [45, 46]:1 SF=[DPPH]/(2×IC50)

HCT-116 = experiment: MTT cytotoxicity assay on HCT-116 cells; format: cell-based, human; details: for IC50: Homo sapiens, HCT-116 cell line, read-out: Growth inhibitory effects IC50; for selectivity index (SI): ratio of IC50 values of MRC-5 and HCT-116, values greater than 1 indicate selectivity toward cancer cell line; for cytotoxic effect in words (from IC50 values): MTT
Procedure: (§1) In this in vitro study, we investigated the influence of PheNAHs on two model systems: human colorectal carcinoma HCT-116 and human healthy fibroblast cell line MRC-5. Both cell lines of low passages were purchased from the European collection of authenticated cell cultures (ECACC) and were cultivated in Dulbecco's Modified Eagle Medium (DMEM) (Sigma, D5796) cell culture medium supplemented with 10% foetal bovine serum (Sigma, F4135-500 ML) and 1% penicillin/streptomycin (Sigma, P4333-100 ML) in 75 cm^2 culture flasks. The cells were maintained according to the standardized procedure in the incubator with humidified atmosphere supplemented with 5% CO2 at a physiological temperature of 37°C, and after a few passages and a confluence of about 80%, the cells were used in all in vitro experiments (Laboratory for Bioengineering protocol CB-003).
(§2) The ability of synthesized compounds to inhibit the growth of two different cell lines was estimated by a standardized 3-(4,5-dimethylthiazol-2-yl)-2,5-diphenyltetrazolium bromide (MTT) assay (Laboratory for Bioengineering protocol CB-005). The approximative number of 10 000 cells per well (in 96-well microplates) were seeded and kept in the incubator for 24 h to enable cell adhesion. After the incubation period, the cells were treated with investigated compounds in the concentration range from 0,1 to 500 µM dissolved in DMEM. Cytotoxic effect was evaluated 24 and 72 h from treatment by following the number of survived cells, thus the cell viability. MTT assay is based on spectrophotometric measurement of reduction rate of 3-(4,5-dimethylthiazol-2-yl)-2,5-diphenyltetrazolium bromide (MTT, Acros Organics, 158990010) to purple formazan crystals subsequently dissolved in DMSO (Fisher Chemical, D/4121/PB15) on a microplate reader (Rayto 2100C) at 550 nm. The percentage of the survived (viable) cells was estimated by dividing the absorbance of the treatment with the absorbance of the control (non-treated) cells and multiplied by 100 [47]. As positive controls, Leucovorin and Irinotecan were selected as compounds used in colon cancer treatment.
(§3) Biological activity was the result of two individual experiments, performed in triplicate for each dose. Statistical analyses were determined using the one-way analysis of variance (ANOVA) test for multiple comparisons, SPSS (Chicago, IL) statistical software package (SPSS for Windows, v. 17, 2008). The IC50 values were calculated from the dose curves by a computer program (CalcuSyn). IC50 values represent the half-maximal inhibitory concentration of tested compounds to measure the influence in inhibition of cell growth for 50%. […] At the beginning of the process of selecting the anti-cancer drug candidate, it is necessary to make a rough preselection between the tested substances. In vitro analysis on cancer and healthy cell lines is quantified in different ways, selectivity also. The selectivity index (SI) of tested drugs usually refers to the simple ratio of IC50 values determined for cancer and healthy cells. Also, the SI can be used for the expression of many other examples, such as SI between antibacterial and antiviral effect, discrimination of the drugs effect between many cancer cell lines, etc. In our experimentation, the values greater than ‘1’ indicate selectivity of the tested substance toward cancer cell line.

MRC-5 = experiment: MTT cytotoxicity assay on MRC-5 cells; format: cell-based; details: Homo sapiens, MRC5, MRC-5 cell line, read-out: Growth inhibitory effects IC50
Procedure: as §1, §2, §3

| Structure (SMILES) | IC50 [1] [µM] | stoichiometric factor (SF) [1] | IC50 (HCT-116; 24 h exposure) [µM] | IC50 (HCT-116; 72 h exposure) [µM] | IC50 (MRC-5; 24 h exposure) [µM] | IC50 (MRC-5; 72 h exposure) [µM] | selectivity index (SI) (HCT-116; after 24 h exposure) | selectivity index (SI) (HCT-116; after 72 h exposure) | cytotoxic effect in words (from IC50 values) (HCT-116; 24 and 72 h exposure, 0,1 to 500 µM) | cytotoxic effect in words (from IC50 values) (HCT-116; 72 h after treatment) |
| --- | --- | --- | --- | --- | --- | --- | --- | --- | --- | --- |
| CC(Cc1ccc(O)c(O)c1)C(C)Cc1ccc(O)c(O)c1 (centres unmarked) [NDGA, nordihydroguaiaretic acid, reference compound] | 1.7 ± 0.1 | 7.4 |  |  |  |  |  |  |  |  |
| O=C(N/N=C/c1ccc(O)cc1)c1ccccc1 [1c] | > 100 |  | > 500 | > 500 | > 500 | > 500 |  |  |  |  |
| O=C(N/N=C/c1ccc(O)c(O)c1)c1ccccc1 [1h] | 2.93 ± 0.1 | 4.3 | > 500 | > 500 | > 500 | > 500 |  |  |  |  |
| O=c1c(O)c(-c2ccc(O)c(O)c2)oc2cc(O)cc(O)c12 [Quercetin, quercetin, reference compound] | 1.9 ± 0.1 | 6.6 |  |  |  |  |  |  |  |  |
| COc1cc(/C=N/NC(=O)c2ccccc2)cc(OC)c1O [1f] | 17.2 ± 1.1 | 0.7 | > 500 | > 500 | > 500 | > 500 |  |  |  |  |
| O=C(N/N=C/c1ccccc1)c1ccccc1 [1a] | > 100 |  | > 500 | > 500 | > 500 | > 500 |  |  |  |  |
| O=C(N/N=C/c1ccccc1O)c1ccccc1 [1b] | > 100 |  | 249 | 139 | > 500 | > 500 | >2.01 | >3.59 |  |  |
| Nc1nc2c(c(=O)[nH]1)N(C=O)C(CNc1ccc(C(=O)N[C@@H](CCC(=O)O)C(=O)O)cc1)CN2 (some centres unmarked) [leucovorin, Leucovorin, reference compound] |  |  | > 500 | > 500 | > 500 | 180 |  | <0.36 | no effect |  |
| CCc1c2c(nc3ccc(OC(=O)N4CCC(N5CCCCC5)CC4)cc13)-c1cc3c(c(=O)n1C2)COC(=O)[C@]3(O)CC [irinotecan, Irinotecan, reference compound] |  |  | > 500 | 101 | > 500 | 35.2 |  | 0.35 |  | moderate |

More lines, main results first:

| IC50 [1] [µM] | Structure (SMILES) | stoichiometric factor (SF) [1] | IC50 (HCT-116; 24 h exposure) [µM] | IC50 (HCT-116; 72 h exposure) [µM] | IC50 (MRC-5; 24 h exposure) [µM] | IC50 (MRC-5; 72 h exposure) [µM] | selectivity index (SI) (HCT-116; after 24 h exposure) | selectivity index (SI) (HCT-116; after 72 h exposure) | cytotoxic effect in words (from IC50 values) (HCT-116; 24 and 72 h exposure, 0,1 to 500 µM) | cytotoxic effect in words (from IC50 values) (HCT-116; 72 h after treatment) |
| --- | --- | --- | --- | --- | --- | --- | --- | --- | --- | --- |
| 1.6 | O=C(N/N=C/c1ccc(O)c(O)c1)c1ccccc1O [2h] | 7.8 | > 500 | 208 | > 500 | > 500 |  |  |  |  |
| 0.9 ± 0.1 | O=C(N/N=C/c1ccc(O)cc1O)c1cc(O)c(O)c(O)c1 [5g] | 13.9 | 99.9 | 77.3 | 76.4 | 78.6 | 0.76 | 1.02 |  |  |
| 6.5 ± 0.4 | COc1cc(/C=N/NC(=O)c2ccccc2O)cc(OC)c1O [2f] | 1.9 | > 500 | > 500 | > 500 | > 500 |  |  |  |  |
| > 100 | COc1cc(C(=O)N/N=C/c2cccc(OC)c2O)ccc1O [4d] |  | > 500 | 202 | > 500 | 128 |  |  |  |  |
| 2.9 ± 0.1 | O=C(N/N=C/c1ccc(O)cc1)c1cc(O)c(O)c(O)c1 [5c] | 4.3 | 71.8 | 38.5 | 92 | 31.9 | 1.28 | 0.83 |  |  |
| > 100 | COc1cc(C(=O)N/N=C/c2ccccc2)ccc1O [4a] |  | > 500 | > 500 | > 500 | > 500 |  |  |  |  |
| 1 ± 0.1 | COc1cccc(/C=N/NC(=O)c2cc(O)c(O)c(O)c2)c1O [5d] | 12.5 | 89.9 | > 500 | 180 | 458 | 2.00 | <0.92 |  |  |
| 1.3 ± 0.1 | O=C(N/N=C/c1ccccc1)c1cc(O)c(O)c(O)c1 [5a] | 9.6 | 247 | 63.5 | 175 | 59.2 | 0.71 | 0.93 |  |  |
| 6.3 ± 0.3 | COc1cc(C(=O)N/N=C/c2cc(OC)c(O)c(OC)c2)ccc1O [4f] | 2 | > 500 | > 500 | > 500 | > 500 |  |  |  |  |
| > 100 | COc1cc(C(=O)N/N=C/c2ccc(O)cc2)ccc1O [4c] |  | > 500 | > 500 | > 500 | > 500 |  |  |  |  |
| > 100 | O=C(N/N=C/c1ccccc1)c1ccccc1O [2a] |  | > 500 | > 500 | > 500 | > 500 |  |  |  |  |
| 20.1 ± 0.9 | COc1cc(/C=N/NC(=O)c2ccccc2O)ccc1O [2e] | 0.6 | > 500 | > 500 | > 500 | > 500 |  |  |  |  |
| > 100 | COc1cccc(/C=N/NC(=O)c2ccc(O)cc2)c1O [3d] |  | > 500 | 94.1 | > 500 | 213 |  | 2.3 |  |  |
| > 100 | COc1cc(C(=O)N/N=C/c2ccc(O)cc2O)ccc1O [4g] |  | 194 | > 500 | > 500 | 307 |  |  |  |  |
| 16.6 ± 0.2 | COc1cc(/C=N/NC(=O)c2ccc(O)cc2)cc(OC)c1O [3f] | 0.8 | > 500 | > 500 | > 500 | > 500 |  |  |  |  |
| > 100 | O=C(N/N=C/c1ccccc1O)c1ccc(O)cc1 [3b] |  | > 500 | 101 | > 500 | > 500 |  | >4.94 |  |  |
| > 100 | O=C(N/N=C/c1ccccc1)c1ccc(O)cc1 [3a] |  | > 500 | > 500 | > 500 | > 500 |  |  |  |  |
| 1.1 ± 0.1 | COc1cc(/C=N/NC(=O)c2cc(O)c(O)c(O)c2)cc(OC)c1O [5f] | 11.4 | 86.9 | 43.6 | 84.3 | 40 | 0.97 | 0.92 |  |  |
| 1.9 ± 0.1 | COc1cc(/C=N/NC(=O)c2cc(O)c(O)c(O)c2)ccc1O [5e] | 6.6 | > 500 | 65.2 | > 500 | 45.8 |  | 0.70 |  |  |
| 3.4 ± 0.1 | COc1cc(C(=O)N/N=C/c2ccc(O)c(O)c2)ccc1O [4h] | 3.7 | > 500 | > 500 | > 500 | > 500 |  |  |  |  |
